Experimental data from ChEMBL document CHEMBL1141885, “N1-arylsulfonyl-3-(1,2,3,6-tetrahydropyridin-4-yl)-1H-indole derivatives are potent and selective 5-HT6 receptor antagonists” (Bioorg Med Chem Lett, 2005).

Legend:
[1] = target: T1, 5-hydroxytryptamine receptor 6 (Homo sapiens, UniProt P50406); test: Inhibitory concentration against 5-HT stimulated cAMP production in HeLa cells stably transfected with human 5-HT6 receptor; type: functional, cell-based
[2] = target: T1, 5-hydroxytryptamine receptor 6; test: Binding affinity against cloned human 5-hydroxytryptamine 6 receptor expressed in HeLa cells using [3H]LSD; type: cell-based
D(2) dopamine receptor [3] = target: T2, D(2) dopamine receptor (Homo sapiens, UniProt P14416); test: Binding affinity against human cloned Dopamine receptor D2 stably expressed in CHO-K1 cells using [3H]spiperone; type: cell-based
T2 sequence (P14416 whole entry): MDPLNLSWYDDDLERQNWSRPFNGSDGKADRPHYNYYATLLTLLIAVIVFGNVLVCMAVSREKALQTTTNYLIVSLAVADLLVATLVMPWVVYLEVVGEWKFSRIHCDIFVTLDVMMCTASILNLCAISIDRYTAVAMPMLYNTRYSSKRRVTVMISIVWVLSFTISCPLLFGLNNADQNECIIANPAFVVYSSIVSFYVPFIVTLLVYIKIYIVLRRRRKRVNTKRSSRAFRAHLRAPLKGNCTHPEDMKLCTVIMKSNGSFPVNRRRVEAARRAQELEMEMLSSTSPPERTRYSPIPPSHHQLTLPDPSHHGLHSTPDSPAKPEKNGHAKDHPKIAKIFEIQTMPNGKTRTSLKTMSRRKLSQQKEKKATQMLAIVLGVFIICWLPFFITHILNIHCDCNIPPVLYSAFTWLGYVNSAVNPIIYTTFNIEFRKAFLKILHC

[4] = target: 5-hydroxytryptamine receptor 1D (Homo sapiens) (UniProt P28221); test: Inhibition of [3H]5-HT binding to human cloned 5-hydroxytryptamine 1D receptor stably expressed in CHO cells at 1 uM; type: cell-based
Sequence of 5-hydroxytryptamine receptor 1D (Homo sapiens) (P28221 whole entry): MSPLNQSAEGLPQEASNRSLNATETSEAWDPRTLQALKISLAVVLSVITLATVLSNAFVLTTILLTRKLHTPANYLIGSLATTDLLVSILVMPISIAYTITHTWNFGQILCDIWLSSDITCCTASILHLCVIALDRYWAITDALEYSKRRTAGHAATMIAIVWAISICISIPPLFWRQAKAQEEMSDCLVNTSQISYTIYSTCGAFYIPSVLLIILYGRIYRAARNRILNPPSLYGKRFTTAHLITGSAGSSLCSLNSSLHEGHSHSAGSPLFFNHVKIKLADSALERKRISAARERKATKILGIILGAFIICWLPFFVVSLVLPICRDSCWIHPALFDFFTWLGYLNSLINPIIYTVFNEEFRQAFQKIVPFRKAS

[5] = target: T3, 5-hydroxytryptamine receptor 1A (Homo sapiens, UniProt P08908); test: Binding affinity against human cloned 5-hydroxytryptamine 1A receptor stably expressed in CHO cells using DPAT
T3 sequence (P08908 whole entry): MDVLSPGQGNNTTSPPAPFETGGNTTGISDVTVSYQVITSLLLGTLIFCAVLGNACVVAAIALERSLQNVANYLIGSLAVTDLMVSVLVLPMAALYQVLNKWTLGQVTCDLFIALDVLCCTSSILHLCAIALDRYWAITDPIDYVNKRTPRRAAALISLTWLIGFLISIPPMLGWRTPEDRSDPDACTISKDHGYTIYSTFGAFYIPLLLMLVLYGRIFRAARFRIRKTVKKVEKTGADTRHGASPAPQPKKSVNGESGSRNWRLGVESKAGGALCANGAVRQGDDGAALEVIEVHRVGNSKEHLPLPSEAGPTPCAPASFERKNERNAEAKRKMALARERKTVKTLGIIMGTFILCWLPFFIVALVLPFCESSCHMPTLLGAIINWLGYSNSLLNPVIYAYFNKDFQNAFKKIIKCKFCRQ

[6] = target: T4, 5-hydroxytryptamine receptor 2A (Homo sapiens, UniProt P28223); test: Binding affinity against human cloned 5-hydroxytryptamine 2A receptor stably expressed in CHO cells using [125I]DOI; type: cell-based
T4 sequence (P28223 whole entry): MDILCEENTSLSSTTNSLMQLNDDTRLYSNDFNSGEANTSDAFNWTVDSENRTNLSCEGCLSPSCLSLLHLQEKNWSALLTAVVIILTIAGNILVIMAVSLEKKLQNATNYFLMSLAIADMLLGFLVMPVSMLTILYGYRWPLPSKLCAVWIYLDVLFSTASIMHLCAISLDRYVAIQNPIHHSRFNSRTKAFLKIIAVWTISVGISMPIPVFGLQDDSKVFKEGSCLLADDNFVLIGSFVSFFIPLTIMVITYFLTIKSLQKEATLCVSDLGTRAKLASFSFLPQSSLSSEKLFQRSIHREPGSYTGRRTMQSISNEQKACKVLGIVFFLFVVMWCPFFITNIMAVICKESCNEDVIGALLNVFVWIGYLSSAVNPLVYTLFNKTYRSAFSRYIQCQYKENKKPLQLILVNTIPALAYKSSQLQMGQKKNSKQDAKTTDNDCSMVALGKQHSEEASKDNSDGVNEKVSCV

[7] = target: T5, 5-hydroxytryptamine receptor 2C (Homo sapiens, UniProt P28335); test: Binding affinity against human cloned 5-hydroxytryptamine 2C receptor stably expressed in CHO cells using [3H]-5-HT; type: cell-based
T5 sequence (P28335 whole entry): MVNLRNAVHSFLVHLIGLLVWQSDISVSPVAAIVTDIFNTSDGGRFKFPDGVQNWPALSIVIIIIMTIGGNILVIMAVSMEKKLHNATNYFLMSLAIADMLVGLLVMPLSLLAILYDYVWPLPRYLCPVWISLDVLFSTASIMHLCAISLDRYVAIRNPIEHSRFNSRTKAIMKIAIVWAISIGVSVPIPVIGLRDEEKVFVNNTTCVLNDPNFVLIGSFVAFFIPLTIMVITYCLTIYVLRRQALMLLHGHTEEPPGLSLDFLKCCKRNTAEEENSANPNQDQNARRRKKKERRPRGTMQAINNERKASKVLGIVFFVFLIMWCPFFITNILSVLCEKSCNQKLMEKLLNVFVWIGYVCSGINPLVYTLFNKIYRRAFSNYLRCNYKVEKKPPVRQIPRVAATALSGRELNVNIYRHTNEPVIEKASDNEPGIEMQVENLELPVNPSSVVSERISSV

[8] = target: 5-hydroxytryptamine receptor 1B (Homo sapiens) (UniProt P28222); test: Inhibition of [3H]-5-HT binding to human cloned 5-hydroxytryptamine 1B receptor stably expressed in CHO cells at 1 uM; type: cell-based
Sequence of 5-hydroxytryptamine receptor 1B (Homo sapiens) (P28222 whole entry): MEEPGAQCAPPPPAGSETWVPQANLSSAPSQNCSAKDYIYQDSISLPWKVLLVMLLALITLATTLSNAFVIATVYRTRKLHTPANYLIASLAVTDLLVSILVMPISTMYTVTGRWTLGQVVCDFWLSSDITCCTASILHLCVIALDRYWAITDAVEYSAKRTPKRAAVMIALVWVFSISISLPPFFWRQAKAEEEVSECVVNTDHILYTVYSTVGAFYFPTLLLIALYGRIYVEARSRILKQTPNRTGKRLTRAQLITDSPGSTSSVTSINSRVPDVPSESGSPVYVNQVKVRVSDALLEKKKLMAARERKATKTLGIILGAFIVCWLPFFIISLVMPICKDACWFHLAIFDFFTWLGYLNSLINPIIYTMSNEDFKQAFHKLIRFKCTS

D(3) dopamine receptor [9] = target: T6, D(3) dopamine receptor (Homo sapiens, UniProt P35462); test: Binding affinity against human cloned Dopamine receptor D3 stably expressed in CHO-K1 cells using [3H]spiperone; type: cell-based
T6 sequence (P35462 whole entry): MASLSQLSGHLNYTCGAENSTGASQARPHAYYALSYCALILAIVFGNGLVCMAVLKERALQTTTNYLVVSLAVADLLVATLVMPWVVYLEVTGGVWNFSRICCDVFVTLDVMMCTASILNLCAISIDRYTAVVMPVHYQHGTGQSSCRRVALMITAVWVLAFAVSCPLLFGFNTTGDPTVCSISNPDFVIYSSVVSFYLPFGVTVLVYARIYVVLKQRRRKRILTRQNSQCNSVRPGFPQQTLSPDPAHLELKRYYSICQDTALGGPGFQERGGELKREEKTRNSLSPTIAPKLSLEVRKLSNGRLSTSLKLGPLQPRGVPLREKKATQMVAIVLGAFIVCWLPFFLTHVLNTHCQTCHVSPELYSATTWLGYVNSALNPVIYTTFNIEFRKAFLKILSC

[10] = target: T7, 5-hydroxytryptamine receptor 1F (Homo sapiens) (UniProt P30939); test: Inhibition of [3H]-5-HT binding to human cloned 5-hydroxytryptamine 1F receptor stably expressed in CHO cells at 1 uM; type: cell-based
T7 sequence (whole entry): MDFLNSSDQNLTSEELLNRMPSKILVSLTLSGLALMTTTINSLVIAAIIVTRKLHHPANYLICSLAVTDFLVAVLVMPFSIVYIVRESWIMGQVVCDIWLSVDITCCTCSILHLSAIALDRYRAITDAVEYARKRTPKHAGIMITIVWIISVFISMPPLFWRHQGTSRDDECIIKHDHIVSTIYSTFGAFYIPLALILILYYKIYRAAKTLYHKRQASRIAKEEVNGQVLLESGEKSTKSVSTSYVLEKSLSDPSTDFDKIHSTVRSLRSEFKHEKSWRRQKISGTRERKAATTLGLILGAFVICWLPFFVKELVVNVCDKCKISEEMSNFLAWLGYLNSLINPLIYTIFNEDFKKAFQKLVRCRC

D(4) dopamine receptor = target: T8, D(4) dopamine receptor (Homo sapiens, UniProt P21917); test: Binding affinity against human cloned Dopamine receptor D4 stably expressed in CHO-K1 cells using [3H]spiperone; type: cell-based
T8 sequence (P21917 whole entry): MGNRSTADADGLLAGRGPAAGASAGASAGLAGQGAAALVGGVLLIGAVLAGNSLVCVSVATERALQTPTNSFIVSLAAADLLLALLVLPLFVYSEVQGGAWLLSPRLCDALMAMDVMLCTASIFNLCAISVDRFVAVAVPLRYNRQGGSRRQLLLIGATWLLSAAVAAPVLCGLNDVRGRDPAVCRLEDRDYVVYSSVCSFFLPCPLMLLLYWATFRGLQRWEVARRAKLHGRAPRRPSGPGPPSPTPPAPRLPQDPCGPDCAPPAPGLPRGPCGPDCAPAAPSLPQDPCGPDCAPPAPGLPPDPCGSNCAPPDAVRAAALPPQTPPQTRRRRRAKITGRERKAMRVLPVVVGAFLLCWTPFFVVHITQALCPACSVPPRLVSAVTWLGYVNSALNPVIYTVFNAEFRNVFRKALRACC

[11] = target: 5-hydroxytryptamine receptor 7 (Homo sapiens, UniProt P34969); test: Binding affinity against human cloned 5-hydroxytryptamine 7 receptor stably expressed in CHO cells using [3H]LSD; type: cell-based
Sequence of 5-hydroxytryptamine receptor 7 (P34969 whole entry): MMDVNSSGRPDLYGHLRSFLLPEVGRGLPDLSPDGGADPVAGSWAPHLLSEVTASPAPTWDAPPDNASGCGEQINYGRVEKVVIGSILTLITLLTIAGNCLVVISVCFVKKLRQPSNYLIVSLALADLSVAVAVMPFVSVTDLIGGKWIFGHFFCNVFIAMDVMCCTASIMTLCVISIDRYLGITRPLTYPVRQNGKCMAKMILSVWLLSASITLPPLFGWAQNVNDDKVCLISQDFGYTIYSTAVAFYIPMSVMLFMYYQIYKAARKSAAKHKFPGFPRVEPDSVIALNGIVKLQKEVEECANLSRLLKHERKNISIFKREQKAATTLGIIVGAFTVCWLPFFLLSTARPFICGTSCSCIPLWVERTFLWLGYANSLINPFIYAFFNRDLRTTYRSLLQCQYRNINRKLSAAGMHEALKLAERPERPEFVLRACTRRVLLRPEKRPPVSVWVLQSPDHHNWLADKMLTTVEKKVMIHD

[12] = target: T1, 5-hydroxytryptamine receptor 6; test: Inhibition of [3H]LSD binding to cloned human 5-hydroxytryptamine 6 receptor expressed in HeLa cells at 1 uM; type: cell-based
[13] = target: T9, 5-hydroxytryptamine receptor 2C (Homo sapiens) (UniProt P28335); test: Inhibition of [3H]5-HT binding to human cloned 5-hydroxytryptamine 2C receptor stably expressed in CHO cells at 1 uM; type: cell-based
T9 sequence (whole entry): T5 sequence (P28335 whole entry)

[14] = target: T4, 5-hydroxytryptamine receptor 2A; test: Inhibition of [125I]DOI binding to human cloned 5-hydroxytryptamine 2A receptor stably expressed in CHO cells at 1 uM; type: cell-based
D(3) dopamine receptor [15] = target: T6, D(3) dopamine receptor; test: Inhibition of [3H]spiperone binding to human cloned Dopamine receptor D3 stably expressed in CHO-K1 cells at 1 uM; type: cell-based
D(2) dopamine receptor [16] = target: T2, D(2) dopamine receptor; test: Inhibition of [3H]spiperone binding to human cloned Dopamine receptor D2 stably expressed in CHO-K1 cells at 1 uM; type: cell-based
[17] = target: T10, D(4) dopamine receptor (Homo sapiens) (UniProt P21917); test: Inhibition of [3H]spiperone binding to human cloned Dopamine receptor D4 stably expressed in CHO-K1 cells at 1 uM; type: cell-based
T10 sequence (whole entry): T8 sequence (P21917 whole entry)

T1 sequence (P50406 whole entry): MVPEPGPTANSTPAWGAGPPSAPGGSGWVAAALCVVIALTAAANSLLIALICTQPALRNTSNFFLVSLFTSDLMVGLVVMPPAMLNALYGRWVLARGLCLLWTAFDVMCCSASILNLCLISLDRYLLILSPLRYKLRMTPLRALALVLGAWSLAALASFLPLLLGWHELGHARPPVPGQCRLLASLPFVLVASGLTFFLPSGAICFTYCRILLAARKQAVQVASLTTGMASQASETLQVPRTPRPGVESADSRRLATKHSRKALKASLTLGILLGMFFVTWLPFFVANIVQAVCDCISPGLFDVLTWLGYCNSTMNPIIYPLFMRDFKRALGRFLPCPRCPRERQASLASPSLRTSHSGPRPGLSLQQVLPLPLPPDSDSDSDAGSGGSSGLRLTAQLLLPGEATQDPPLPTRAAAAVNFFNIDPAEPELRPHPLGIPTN

Row | SMILES | IC50 [1] [nM] | Ki [2] [nM] | further results
1 | Nc1ccc(S(=O)(=O)n2cc(C3CCNCC3)c3cc(F)ccc32)cc1 | 1.3 | 2 | 
2 | CN1CC=C(c2cn(C(=O)Nc3ccccc3)c3ccccc23)CC1 |  | 118 | 
3 | CN1CC=C(c2cn(S(=O)(=O)c3ccccc3Cl)c3ccccc23)CC1 | 0.7 | 10 | 
4 | O=S(=O)(c1ccc(Cl)s1)n1cc(C2=CCNCC2)c2ccccc21 | 14.1 | 3 | 
5 | O=S(=O)(c1ccccc1Cl)n1cc(C2=CCNCC2)c2ccccc21 | 8.8 | 0.4 | Ki (D(2) dopamine receptor [3]): > 2000 nM; inhibition [4]: 6%; Ki [5]: > 2000 nM; Ki [6]: 599 nM; Ki [7]: 383 nM; inhibition [8]: 12%; Ki (D(3) dopamine receptor [9]): 627 nM; inhibition [10]: 2%; Ki (D(4) dopamine receptor): > 5 µM
6 | CN1CC=C(c2cn(S(=O)(=O)c3ccc(F)cc3)c3ccccc23)CC1 | 42.7 | 5 | 
7 | O=S(=O)(c1ccc(F)cc1)n1cc(C2=CCNCC2)c2cc(F)ccc21 | 31 | 3 | 
8 | COc1ccc2c(c1)c(C1=CCNCC1)cn2S(=O)(=O)c1ccc(N)cc1 | 0.4 | 3 | inhibition [4]: 32%; Ki [5]: 97 nM; inhibition [8]: 27%; Ki [11]: > 5000 nM
9 | Nc1ccc(S(=O)(=O)n2cc(C3=CCNCC3)c3cc4c(cc32)OCO4)cc1 | 1.7 | 1 | 
10 | CC(C)(C)OC(=O)N1CC=C(c2cn(S(=O)(=O)c3ccccc3)c3ccccc23)CC1 |  | 54 | 
11 | O=S(=O)(c1ccccc1)n1cc(C2CCNCC2)c2cc(F)ccc21 |  | 20 | 
12 | CN1CC=C(c2cn(S(=O)(=O)c3ccccc3F)c3ccccc23)CC1 | 3.9 | 10 | 
13 | O=S(=O)(c1ccc2ccccc2c1)n1cc(C2=CCNCC2)c2ccccc21 |  | 27 | 
14 | CC(=O)N1CC=C(c2cn(S(=O)(=O)c3ccccc3)c3ccccc23)CC1 |  |  | inhibition [12]: 64%
15 | O=S(=O)(c1ccccc1)n1cc(C2CCNCC2)c2ccccc21 | 19.5 | 12 | 
16 | O=S(=O)(c1ccccc1F)n1cc(C2=CCNCC2)c2ccccc21 | 2.7 | 1 | Ki (D(2) dopamine receptor [3]): > 2000 nM; inhibition [4]: 9%; Ki [5]: 875 nM; inhibition [8]: 11%; Ki (D(3) dopamine receptor [9]): 741 nM; inhibition [10]: 53%; inhibition [13]: 57%; inhibition [14]: 50%; Ki (D(4) dopamine receptor): > 5 µM
17 | CN1CC=C(c2cn(C(=O)c3ccccc3)c3ccccc23)CC1 |  | 99 | 
18 | Nc1ccc(S(=O)(=O)n2cc(C3=CCNCC3)c3cc(F)ccc32)cc1 | 9.7 | 1 | 
19 | COc1ccc2c(c1)c(C1=CCNCC1)cn2S(=O)(=O)c1ccc2ccccc2c1 | 4.1 | 19 | 

Row | SMILES | IC50 [1] [nM] | Ki [2] [nM] | further results
20 | CN1CC=C(c2cn(S(=O)(=O)c3ccccc3)c3ccccc23)CC1 | 13.8 | 2 | 
21 | CN1CC=C(c2cn(S(=O)(=O)c3cccc(Cl)c3)c3ccccc23)CC1 | 9.4 | 1 | 
22 | O=S(=O)(c1ccc(C(F)(F)F)cc1)n1cc(C2=CCNCC2)c2ccccc21 |  | 20 | 
23 | Nc1ccc(S(=O)(=O)n2cc(C3=CCNCC3)c3ccccc32)cc1 | 0.8 | 2 | Ki [5]: 1670 nM; inhibition [8]: 33%; Ki [11]: 1550 nM
24 | Nc1ccc(S(=O)(=O)n2cc(C3CCNCC3)c3ccc(Cl)cc32)cc1 | 8.5 | 3 | inhibition [4]: 10%; Ki [5]: 115 nM; inhibition (D(3) dopamine receptor [15]): 7%; inhibition [8]: 30%; Ki [11]: > 2000 nM; inhibition [10]: 16%; inhibition [13]: 15%; inhibition [14]: 65%; inhibition (D(2) dopamine receptor [16]): 10%; inhibition [17]: 7%
25 | COc1ccc(S(=O)(=O)n2cc(C3=CCNCC3)c3ccccc32)cc1 |  | 18 | 
26 | Nc1ccc(S(=O)(=O)n2cc(C3=CCNCC3)c3cc(OCc4ccccc4)ccc32)cc1 |  | 50 | 
27 | O=S(=O)(c1ccccc1)n1cc(C2=CCN(Cc3ccccc3)CC2)c2ccccc21 |  | 246 | 
28 | O=S(=O)(c1ccc(Cl)cc1)n1cc(C2=CCNCC2)c2cc(F)ccc21 |  | 14 | 
29 | O=S(=O)(c1ccccc1)n1cc(C2=CCNCC2)c2cc(F)ccc21 |  | 2.4 | 
30 | Nc1ccc(S(=O)(=O)n2cc(C3=CCNCC3)c3ccc(Cl)cc32)cc1 | 11.2 | 3 | 
31 | CN1CC=C(c2c[nH]c3ccccc23)CC1 |  | 98 | 
32 | Nc1ccc(S(=O)(=O)n2cc(C3=CCNCC3)c3ccc([N+](=O)[O-])cc32)cc1 |  | 31 | 
33 | O=S(=O)(c1ccccc1)n1cc(C2=CCNCC2)c2ccccc21 | 43 | 2 | 
34 | Nc1ccc(S(=O)(=O)n2cc(C3=CCNCC3)c3cc([N+](=O)[O-])ccc32)cc1 |  | 29 | 
35 | O=S(=O)(c1nccc2sncc12)n1cc(C2=CCNCC2)c2ccccc21 | 169 | 5 | 
36 | Nc1ccc(S(=O)(=O)n2cc(C3=CCNCC3)c3cc(Br)ccc32)cc1 | 33.7 | 7 | 
37 | CCCCS(=O)(=O)n1cc(C2=CCNCC2)c2ccccc21 |  | 77 | 
38 | O=S(=O)(c1cccc2ccccc12)n1cc(C2=CCNCC2)c2cc(F)ccc21 | 9 | 4 | 
